Columns and labels:
AADC = biological target: T1, AADC (Sus scrofa, UniProt P80041); assay: In vitro AADC inhibition: time of 90% inactivation (14CO2 trapping, DL-[1-14C]-dopa substrate); assay type: biochemical, hog; set-up: key to RATING: ++++: The relative activities of the compounds are rated by the given number of "plus" signs; +++: The relative activities of the compounds are rated by the given number of "plus" signs; 0-+: The relative activities of the compounds are rated by the given number of "plus" signs; conditions: CONC. 10 μM
T1 sequence (P80041 1-486): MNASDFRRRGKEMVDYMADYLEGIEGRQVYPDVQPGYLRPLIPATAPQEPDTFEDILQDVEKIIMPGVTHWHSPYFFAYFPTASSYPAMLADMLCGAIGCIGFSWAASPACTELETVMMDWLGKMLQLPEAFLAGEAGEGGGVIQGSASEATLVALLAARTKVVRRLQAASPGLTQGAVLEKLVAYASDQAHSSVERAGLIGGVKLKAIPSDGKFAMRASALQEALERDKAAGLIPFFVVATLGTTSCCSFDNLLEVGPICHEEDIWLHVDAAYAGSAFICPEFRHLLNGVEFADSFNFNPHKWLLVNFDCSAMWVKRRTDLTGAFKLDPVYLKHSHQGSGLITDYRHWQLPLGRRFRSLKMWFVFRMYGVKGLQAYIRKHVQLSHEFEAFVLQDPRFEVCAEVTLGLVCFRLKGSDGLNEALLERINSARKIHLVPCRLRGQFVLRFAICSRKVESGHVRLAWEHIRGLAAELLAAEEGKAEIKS
Experimental: AADC can be purified from hog kidney by the general method of J. Christenson et al. Archs. Biochem. Biophys., 141, 356 (1970) and G. Lancaster et al., Can. J. Biochem., 50, 791 (1972), and the specific activity of the enzyme is determined by the ^14 CO2 trapping method using DL-[1-^14 C]-dopa as the substrate (see Christenson et al.). One unit of activity is defined as the total amount of enzyme which produces 1 n mol of CO2 per minute, with DL-[1-^14 C]-dopa as substrate.
To 100 μl of 50 mM-phosphate buffer pH 7.4 containing 100 mM-mercapto-ethanol are added 5 μl of an aqueous solution containing the test compound at the desired concentration and 50 μl of an aqueous solution containing 2 units of AADC. The mixture is incubated at 37° C. and 20 μl aliquots are removed at various times. The AADC activity remaining in each aliquot is measured by the CO2 trapping method of Christenson.
The relative activities of the compounds are rated by the given number of "plus" signs.

[1] = test system: catecholamine levels (dopamine, noradrenaline); assay: Effect of dopamine injection on catecholamine levels in heart and brain of mice treated with test compound (Table VI); assay type: in vivo, Male albino mice; conditions: ± SEM, n = 5; for Heart Dopamine: control 20 ± 2; for Brain Noradrenaline: control 516 ± 24; for Heart Noradrenaline: control 760 ± 87; for Brain Dopamine: control 1183 ± 28
Experimental: Saline solution is used as a control. The mice are sacrificed and the catecholamines, dopamine and noradrenaline, and serotonin (5-hydroxytryptamine) are determined by reverse-phase ion-pair high pressure liquid chromatography using electrochemical detection. […] Twelve hours after the second dose, one group of animals received an i.p. injection of 50 mg/kg of dopamine-HCl (Sigma, Chem. Co), the other group received saline instead. Three hours after the dopamine injection, the animals were killed and catecholamines were measured in heart and brain as described in Example 18.

[2] = 2 × 100 mg/kg test compound + dopamine 50 mg/kg i.p., * marked
[3] = 2 × 100 mg/kg test compound + saline, * marked

## NC(CF)(Cc1ccc(O)c(O)c1)C(=O)O (stereo not shown) [3,4-diOH-phenyl, 2-Amino-2-fluoromethyl-3-(3,4-dihydroxyphenyl)propionic acid]
AADC; pH 7.4, 37° C.
  TIME OF 90% INACTIVATION: 1 to 2 min
AADC; relative activity
  RATING: ++++
[1]; [2]
  Heart Dopamine: 429 ± 39 ng/g
  Brain Noradrenaline: 42 ± 4 ng/g
  Brain Dopamine: 92 ± 8 ng/g
[1]; 2 × 100 mg/kg test compound + dopamine 50 mg/kg i.p.
  Heart Noradrenaline: 882 ± 47 ng/g
[1]; 2 × 100 mg/kg test compound + saline
  Heart Dopamine: 98 ± 62 ng/g
[1]; [3]
  Brain Noradrenaline: 44 ± 6 ng/g
  Heart Noradrenaline: 173 ± 24 ng/g
  Brain Dopamine: 47 ± 5 ng/g

— patent US4342780A, “Method of depleting endogenous monoamines” (Merrell-Toraude et Cie, priority 1981, dated 1982)
